ChEMBL document CHEMBL1201862, “PubChem BioAssay data set” (2004)
Blank lines part the entries; values can stand above or below the molecule they belong to. Activity calls are given as the source filed them.

How the values were obtained:
Transthyretin = Transthyretin (Homo sapiens, UniProt P02766); test: Luminescence-based cell-based high throughput dose response assay to identify activators of Transthyretin (TTR) transcription.; assay type: functional
[1] = cytotoxicity toward NIH3T3 fibroblasts, dose response, counter-screen, cell-based, ATP luminescence, mouse fibroblasts (AID 2010); assay type: functional;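 further: cells exposed to compound for about 90 hours before reading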
[2] = inhibitors of intracellular T. cruzi replication, confirmation, NIH3T3 host cells, beta-gal luminescence (AID 2044); assay type: functional, cell-based;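 further: intracellular parasites grown in NIH/3T3 mouse fibroblasts as host cells; luminescent beta-galactosidase reporter signal from transgenic T. cruzi replicating inside host cells; inhibitors lower the luminescence signal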
[3] = Vero cell cytotoxicity, dose response, cytotoxicity control for Vif-APOBEC3G degradation inhibitor project, Vero cells (AID 1117358); assay type: functional; settings: Human immunodeficiency virus 1, Vero
[4] = target: Glutathione-S-transferase (Schistosoma japonicum, UniProt Q26513); test: biotin-GST/anti-GST TR-FRET signal inhibitors, dose response, artefact control for Vif-APOBEC3G degradation inhibitor project, biochemical (AID 1117362); assay type: functional
[5] = target: Induced myeloid leukemia cell differentiation protein Mcl-1 (Homo sapiens, UniProt Q07820); assay type: functional
Protein Tat = Protein Tat (Human immunodeficiency virus type 1 group M subtype B (isolate HXB2)(HIV-1), UniProt P04608); assay type: functional;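 further: tat binding to TAR RNA read out by fluorescence polarization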
Caspase-9 = Caspase-9 (Homo sapiens, UniProt P55211); test: caspase-9 enzyme inhibition, dose response, selectivity assay for caspase-6 inhibitor project, biochemical, fluorescence, plate reader, cherry-picked samples (AID 743293)
Caspase-6 = Caspase-6 (Homo sapiens, UniProt P55212); test: human caspase-6 inhibitors, dose response, biochemical, VEID-R110 fluorescence, cherry-pick (AID 720632)
[6] = target: 1-phosphatidylinositol 4,5-bisphosphate phosphodiesterase gamma-1 (Homo sapiens, UniProt P19174); test: Counterscreen for inhibitors of phospholipase C isozymes (PLC-B3): Fluorescence-based biochemical high throughput dose response assay to identify inhibitors of phospholipase C isozymes (PLC-gamma1).
[7] = target: 1-phosphatidylinositol 4,5-bisphosphate phosphodiesterase beta-3 (Homo sapiens, UniProt Q01970); test: Fluorescence-based biochemical high throughput dose response assay to identify inhibitors of phospholipase C isozymes (PLC-B3).
[8] = target: RNA-editing ligase 1, mitochondrial (Trypanosoma brucei brucei, UniProt P86926); test: TbREL1 ligase inhibitors, dose response, biochemical, fluorescence, Trypanosoma brucei (AID 1117295); assay type: functional
[9] = target: DNA (cytosine-5)-methyltransferase 1 (Homo sapiens, UniProt P26358); test: DNMT1 methyltransferase inhibitors, confirmation, biochemical, fluorescent molecular beacon (AID 602386); assay type: functional
[10] = target: T1, Zinc finger protein mex-5 (Caenorhabditis elegans, UniProt Q9XUB2); test: MEX-5/TCR-2 RNA interaction inhibitors, dose response, biochemical, C. elegans, fluorescence polarization (AID 1960)
T1 sequence (Q9XUB2 whole entry): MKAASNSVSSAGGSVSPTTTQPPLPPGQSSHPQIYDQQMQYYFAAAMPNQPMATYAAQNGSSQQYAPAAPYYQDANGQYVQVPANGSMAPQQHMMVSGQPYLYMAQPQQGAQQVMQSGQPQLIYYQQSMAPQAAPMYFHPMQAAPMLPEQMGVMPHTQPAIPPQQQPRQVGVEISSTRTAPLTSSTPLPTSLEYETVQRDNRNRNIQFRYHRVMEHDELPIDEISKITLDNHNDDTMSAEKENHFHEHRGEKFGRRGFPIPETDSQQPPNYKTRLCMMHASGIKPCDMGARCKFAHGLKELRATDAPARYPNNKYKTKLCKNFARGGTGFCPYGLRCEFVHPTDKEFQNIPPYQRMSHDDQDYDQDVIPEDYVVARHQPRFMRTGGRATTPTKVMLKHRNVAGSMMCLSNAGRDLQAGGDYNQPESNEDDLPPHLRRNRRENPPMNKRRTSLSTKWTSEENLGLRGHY

[11] = target: T2, RNA-binding protein pos-1 (Caenorhabditis elegans, UniProt G5EF15); test: inhibitors of POS-1/mex-3 RNA binding, dose response, biochemical, fluorescence polarization (AID 1964);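 further: purified POS-1 fused to maltose binding protein made in E. coli; potency of compounds blocking POS-1 binding to fluorescent RNA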
T2 sequence (G5EF15 whole entry): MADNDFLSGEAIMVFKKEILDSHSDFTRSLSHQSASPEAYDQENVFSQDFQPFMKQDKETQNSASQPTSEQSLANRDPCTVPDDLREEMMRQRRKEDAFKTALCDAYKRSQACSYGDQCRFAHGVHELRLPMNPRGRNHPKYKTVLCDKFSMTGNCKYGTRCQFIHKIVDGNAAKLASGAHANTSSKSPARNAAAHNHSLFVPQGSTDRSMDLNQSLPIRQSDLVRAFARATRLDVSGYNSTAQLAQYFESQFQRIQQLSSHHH

[12] = target: T3, Histone-lysine N-methyltransferase NSD2 (Homo sapiens, UniProt O96028); assay type: biochemical
T3 sequence (O96028 whole entry): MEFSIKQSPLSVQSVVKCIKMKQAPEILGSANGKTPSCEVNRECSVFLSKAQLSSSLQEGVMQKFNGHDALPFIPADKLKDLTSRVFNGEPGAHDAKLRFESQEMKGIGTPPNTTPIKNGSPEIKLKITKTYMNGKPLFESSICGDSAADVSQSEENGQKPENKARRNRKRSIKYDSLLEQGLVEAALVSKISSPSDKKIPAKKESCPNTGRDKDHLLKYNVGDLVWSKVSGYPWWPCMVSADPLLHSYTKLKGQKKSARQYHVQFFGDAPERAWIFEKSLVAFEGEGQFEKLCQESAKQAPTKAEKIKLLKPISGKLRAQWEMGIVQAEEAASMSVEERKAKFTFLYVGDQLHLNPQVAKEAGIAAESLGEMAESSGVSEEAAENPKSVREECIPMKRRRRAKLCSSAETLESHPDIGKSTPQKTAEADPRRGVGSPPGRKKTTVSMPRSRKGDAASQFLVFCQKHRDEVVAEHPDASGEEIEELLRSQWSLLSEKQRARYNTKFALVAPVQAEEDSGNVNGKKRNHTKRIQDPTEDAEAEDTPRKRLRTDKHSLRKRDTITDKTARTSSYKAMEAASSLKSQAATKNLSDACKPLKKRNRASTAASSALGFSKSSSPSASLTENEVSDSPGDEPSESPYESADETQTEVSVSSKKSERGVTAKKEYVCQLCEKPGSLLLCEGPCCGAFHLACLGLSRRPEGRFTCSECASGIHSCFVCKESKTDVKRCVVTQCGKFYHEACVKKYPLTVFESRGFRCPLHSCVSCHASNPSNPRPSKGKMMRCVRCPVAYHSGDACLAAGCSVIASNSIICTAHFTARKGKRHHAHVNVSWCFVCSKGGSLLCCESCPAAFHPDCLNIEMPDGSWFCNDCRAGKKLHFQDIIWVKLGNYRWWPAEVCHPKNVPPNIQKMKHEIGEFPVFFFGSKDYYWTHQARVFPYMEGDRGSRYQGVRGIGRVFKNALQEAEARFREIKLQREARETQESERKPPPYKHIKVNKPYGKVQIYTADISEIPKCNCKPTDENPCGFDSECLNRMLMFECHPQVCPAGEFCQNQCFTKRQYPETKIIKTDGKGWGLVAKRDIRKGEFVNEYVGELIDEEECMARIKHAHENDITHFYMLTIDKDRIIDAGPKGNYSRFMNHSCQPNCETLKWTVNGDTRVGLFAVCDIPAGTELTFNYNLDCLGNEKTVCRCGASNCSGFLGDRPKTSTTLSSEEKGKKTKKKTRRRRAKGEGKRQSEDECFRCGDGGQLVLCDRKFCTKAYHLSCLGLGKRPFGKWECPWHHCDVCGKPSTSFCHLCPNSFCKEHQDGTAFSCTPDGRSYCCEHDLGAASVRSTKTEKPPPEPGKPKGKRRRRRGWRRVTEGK

Chain of Induced myeloid leukemia cell differentiation protein Mcl-1 (Q07820 whole entry): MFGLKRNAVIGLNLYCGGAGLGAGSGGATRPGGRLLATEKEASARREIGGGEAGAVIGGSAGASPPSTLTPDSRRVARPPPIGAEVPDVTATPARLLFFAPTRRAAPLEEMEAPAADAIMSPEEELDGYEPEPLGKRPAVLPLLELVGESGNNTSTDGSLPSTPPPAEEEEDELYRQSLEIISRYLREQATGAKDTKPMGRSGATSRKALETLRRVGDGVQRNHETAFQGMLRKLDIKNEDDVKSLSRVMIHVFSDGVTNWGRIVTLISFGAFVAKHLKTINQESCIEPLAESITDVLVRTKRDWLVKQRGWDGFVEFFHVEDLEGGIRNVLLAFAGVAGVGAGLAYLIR
Chain of RNA-editing ligase 1, mitochondrial (P86926 whole entry): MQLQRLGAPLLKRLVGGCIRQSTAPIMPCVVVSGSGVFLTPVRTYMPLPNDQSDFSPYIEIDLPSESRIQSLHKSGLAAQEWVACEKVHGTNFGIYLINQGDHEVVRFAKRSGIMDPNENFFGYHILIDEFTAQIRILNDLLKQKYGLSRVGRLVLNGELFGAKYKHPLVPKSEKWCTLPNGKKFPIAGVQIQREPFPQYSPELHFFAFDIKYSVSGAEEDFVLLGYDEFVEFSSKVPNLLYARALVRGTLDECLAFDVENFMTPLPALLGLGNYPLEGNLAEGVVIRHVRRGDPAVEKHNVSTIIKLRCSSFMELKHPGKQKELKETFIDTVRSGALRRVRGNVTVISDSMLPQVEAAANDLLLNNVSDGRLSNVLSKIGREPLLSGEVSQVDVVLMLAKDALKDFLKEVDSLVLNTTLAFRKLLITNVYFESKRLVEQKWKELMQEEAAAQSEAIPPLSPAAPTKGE
Chain of Caspase-6 (P55212 24-179 limits assumed): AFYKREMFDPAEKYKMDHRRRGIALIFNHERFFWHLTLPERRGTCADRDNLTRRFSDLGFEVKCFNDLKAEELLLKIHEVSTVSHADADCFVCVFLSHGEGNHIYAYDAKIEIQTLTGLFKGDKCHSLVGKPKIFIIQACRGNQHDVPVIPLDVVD
Chain of Caspase-6 (P55212 194-293 limits assumed): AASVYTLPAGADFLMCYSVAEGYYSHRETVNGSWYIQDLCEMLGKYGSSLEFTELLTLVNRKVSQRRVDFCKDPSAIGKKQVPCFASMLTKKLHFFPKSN
Chain of Glutathione-S-transferase (Q26513 whole entry): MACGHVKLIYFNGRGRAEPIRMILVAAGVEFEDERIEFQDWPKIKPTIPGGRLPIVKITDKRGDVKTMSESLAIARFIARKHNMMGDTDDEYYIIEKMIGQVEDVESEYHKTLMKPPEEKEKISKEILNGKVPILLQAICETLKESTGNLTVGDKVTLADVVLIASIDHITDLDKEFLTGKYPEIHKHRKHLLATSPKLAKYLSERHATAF
Chain of 1-phosphatidylinositol 4,5-bisphosphate phosphodiesterase beta-3 (Q01970 whole entry): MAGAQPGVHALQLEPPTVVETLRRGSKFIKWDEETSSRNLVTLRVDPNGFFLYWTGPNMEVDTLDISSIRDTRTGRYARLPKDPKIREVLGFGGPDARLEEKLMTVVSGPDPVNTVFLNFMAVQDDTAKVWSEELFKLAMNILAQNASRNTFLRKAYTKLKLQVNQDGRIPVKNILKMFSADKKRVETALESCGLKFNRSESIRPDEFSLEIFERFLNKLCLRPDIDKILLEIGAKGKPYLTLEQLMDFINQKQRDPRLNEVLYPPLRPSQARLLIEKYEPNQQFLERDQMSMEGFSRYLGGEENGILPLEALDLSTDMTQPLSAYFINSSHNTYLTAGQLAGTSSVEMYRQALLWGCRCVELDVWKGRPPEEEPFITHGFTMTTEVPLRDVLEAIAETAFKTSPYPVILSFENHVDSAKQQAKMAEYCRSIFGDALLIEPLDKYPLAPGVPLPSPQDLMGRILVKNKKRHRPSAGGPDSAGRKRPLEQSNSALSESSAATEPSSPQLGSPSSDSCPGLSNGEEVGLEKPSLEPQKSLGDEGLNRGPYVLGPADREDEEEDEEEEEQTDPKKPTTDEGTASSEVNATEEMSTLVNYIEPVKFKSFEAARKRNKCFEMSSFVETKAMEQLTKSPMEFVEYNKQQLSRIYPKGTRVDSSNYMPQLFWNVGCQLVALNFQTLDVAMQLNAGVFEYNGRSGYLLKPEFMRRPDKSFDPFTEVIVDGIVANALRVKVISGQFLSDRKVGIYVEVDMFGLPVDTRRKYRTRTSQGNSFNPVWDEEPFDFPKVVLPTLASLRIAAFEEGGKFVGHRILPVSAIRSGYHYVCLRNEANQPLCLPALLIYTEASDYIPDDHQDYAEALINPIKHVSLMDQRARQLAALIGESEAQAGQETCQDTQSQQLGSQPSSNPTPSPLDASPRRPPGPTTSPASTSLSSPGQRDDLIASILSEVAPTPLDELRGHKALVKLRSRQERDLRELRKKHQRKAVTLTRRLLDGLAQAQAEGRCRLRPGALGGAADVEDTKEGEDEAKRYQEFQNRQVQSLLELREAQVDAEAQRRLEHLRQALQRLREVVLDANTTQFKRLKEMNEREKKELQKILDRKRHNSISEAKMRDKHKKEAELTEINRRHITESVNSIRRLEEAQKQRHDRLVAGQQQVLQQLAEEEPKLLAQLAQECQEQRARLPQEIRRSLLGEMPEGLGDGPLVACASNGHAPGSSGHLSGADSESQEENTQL
Chain of DNA (cytosine-5)-methyltransferase 1 (P26358 whole entry): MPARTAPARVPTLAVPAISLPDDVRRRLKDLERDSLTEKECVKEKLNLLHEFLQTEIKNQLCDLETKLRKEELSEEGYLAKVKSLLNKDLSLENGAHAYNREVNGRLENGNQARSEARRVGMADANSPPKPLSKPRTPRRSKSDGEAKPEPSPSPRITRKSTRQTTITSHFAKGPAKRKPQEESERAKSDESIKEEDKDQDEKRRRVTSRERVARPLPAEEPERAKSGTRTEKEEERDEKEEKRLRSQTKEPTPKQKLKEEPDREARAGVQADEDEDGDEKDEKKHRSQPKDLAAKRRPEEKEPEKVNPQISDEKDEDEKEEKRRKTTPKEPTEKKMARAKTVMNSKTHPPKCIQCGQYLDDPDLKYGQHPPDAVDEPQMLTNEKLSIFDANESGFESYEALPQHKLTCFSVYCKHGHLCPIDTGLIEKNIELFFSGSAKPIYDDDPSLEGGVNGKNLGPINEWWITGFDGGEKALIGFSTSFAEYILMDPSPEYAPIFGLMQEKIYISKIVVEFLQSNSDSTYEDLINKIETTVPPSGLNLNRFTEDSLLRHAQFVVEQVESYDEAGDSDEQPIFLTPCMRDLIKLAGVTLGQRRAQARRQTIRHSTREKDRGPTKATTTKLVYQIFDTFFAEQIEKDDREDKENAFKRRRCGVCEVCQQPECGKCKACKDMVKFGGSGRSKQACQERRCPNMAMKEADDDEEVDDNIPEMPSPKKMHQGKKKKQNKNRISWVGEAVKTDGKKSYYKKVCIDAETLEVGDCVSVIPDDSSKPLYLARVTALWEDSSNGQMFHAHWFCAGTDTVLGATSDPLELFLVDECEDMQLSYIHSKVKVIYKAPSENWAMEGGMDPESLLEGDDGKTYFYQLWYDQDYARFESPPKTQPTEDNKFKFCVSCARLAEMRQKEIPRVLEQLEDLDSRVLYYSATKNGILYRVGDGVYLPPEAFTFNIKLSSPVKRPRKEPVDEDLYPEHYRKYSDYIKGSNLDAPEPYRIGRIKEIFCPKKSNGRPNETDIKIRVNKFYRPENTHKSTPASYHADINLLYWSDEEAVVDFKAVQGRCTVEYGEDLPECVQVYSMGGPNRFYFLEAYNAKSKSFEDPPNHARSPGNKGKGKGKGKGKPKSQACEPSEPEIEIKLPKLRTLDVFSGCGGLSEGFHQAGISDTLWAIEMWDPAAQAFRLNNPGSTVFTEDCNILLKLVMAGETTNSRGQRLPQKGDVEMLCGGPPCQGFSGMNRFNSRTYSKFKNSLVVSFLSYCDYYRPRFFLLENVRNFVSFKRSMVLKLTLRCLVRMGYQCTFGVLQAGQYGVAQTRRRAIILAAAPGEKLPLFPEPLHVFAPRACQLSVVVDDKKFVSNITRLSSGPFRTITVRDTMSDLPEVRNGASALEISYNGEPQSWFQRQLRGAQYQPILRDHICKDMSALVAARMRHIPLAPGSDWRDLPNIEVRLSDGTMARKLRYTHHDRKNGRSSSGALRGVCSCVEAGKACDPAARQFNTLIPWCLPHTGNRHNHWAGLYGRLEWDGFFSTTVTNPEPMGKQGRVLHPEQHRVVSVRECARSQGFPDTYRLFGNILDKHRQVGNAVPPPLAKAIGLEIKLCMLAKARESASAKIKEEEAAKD
Chain of Caspase-9 (P55211 1-315 limits assumed): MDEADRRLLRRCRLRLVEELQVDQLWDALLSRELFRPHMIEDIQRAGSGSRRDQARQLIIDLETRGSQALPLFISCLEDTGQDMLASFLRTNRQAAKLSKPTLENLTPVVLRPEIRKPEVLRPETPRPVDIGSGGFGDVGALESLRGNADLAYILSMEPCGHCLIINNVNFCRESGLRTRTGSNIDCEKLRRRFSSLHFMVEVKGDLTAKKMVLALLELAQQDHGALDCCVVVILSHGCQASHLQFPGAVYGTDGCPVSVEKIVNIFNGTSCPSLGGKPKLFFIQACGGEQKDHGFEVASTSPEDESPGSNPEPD
Chain of Caspase-9 (P55211 331-416 limits assumed): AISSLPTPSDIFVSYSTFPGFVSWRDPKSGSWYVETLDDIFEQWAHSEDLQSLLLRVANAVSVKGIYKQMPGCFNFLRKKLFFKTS
Chain of Protein Tat (P04608 whole entry): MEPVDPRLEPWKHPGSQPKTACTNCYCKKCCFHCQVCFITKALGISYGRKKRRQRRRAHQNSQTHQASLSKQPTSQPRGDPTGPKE

Structure (SMILES): Cc1nnc(SCc2ccc(Cl)cc2)nc1/C=C/N(C)C
- EC50 (Transthyretin): > 167 µM (inactive)
- EC50 [1]: > 60 µM (not active)
- EC50 [2]: 0.66 µM (active)

Structure (SMILES): O=C(c1ccco1)N(CCC(c1ccccc1)c1ccco1)Cc1ccc(F)cc1 (stereo unspecified)
- CC50 [3]: > 40 µM (active)

- IC50 [4]: > 100 µM (active)
- IC50 [5]: 3.71 µM (active)
- IC50 (Protein Tat): > 100 µM (inconclusive)
Structure (SMILES): CC1=Nc2cccc3cccc(c23)N1

- AC50 (Caspase-9): > 70 µM (inactive)
- AC50 (Caspase-6): 3.5 µM (active)
- IC50 [6]: 3.97 µM (active)
- IC50 [7]: > 123 µM (inactive)
- IC50 [8]: 4.99 µM (active)
- IC50 [9]: 3.2 µM (active)
- EC50 [10]: > 300 µM (not active)
- EC50 [11]: > 300 µM (not active)
- AC50 [12]: 16.3 µM (active)
Structure (SMILES): Nc1cc(S(=O)(=O)O)cc([N+](=O)[O-])c1O
